Activity calls are given as the source filed them. How the calls were made is not given here.
Test system: CCRIS mutagenicity, Ames/micronucleus/aberration tests
Test: CCRIS mutagenicity studies
[1] = Test System: AMES SALMONELLA TYPHIMURIUM, Strain/Indicator: TA98, Metabolic Activation: NONE, Method: STANDARD PLATE
[2] = Test System: AMES SALMONELLA TYPHIMURIUM, Strain/Indicator: TA98, Metabolic Activation: RAT, LIVER, S-9, AROCLOR 1254, Method: STANDARD PLATE
[3] = Test System: AMES SALMONELLA TYPHIMURIUM, Strain/Indicator: TA100, Metabolic Activation: NONE, Method: STANDARD PLATE
[4] = Test System: AMES SALMONELLA TYPHIMURIUM, Strain/Indicator: TA100, Metabolic Activation: RAT, LIVER, S-9, AROCLOR 1254, Method: STANDARD PLATE
[5] = Test System: AMES SALMONELLA TYPHIMURIUM, Strain/Indicator: TA1535, Metabolic Activation: NONE, Method: STANDARD PLATE
[6] = Test System: AMES SALMONELLA TYPHIMURIUM, Strain/Indicator: TA1535, Metabolic Activation: RAT, LIVER, S-9, AROCLOR 1254, Method: STANDARD PLATE
[7] = Test System: AMES SALMONELLA TYPHIMURIUM, Strain/Indicator: TA1537, Metabolic Activation: NONE, Method: STANDARD PLATE
[8] = Test System: AMES SALMONELLA TYPHIMURIUM, Strain/Indicator: TA1537, Metabolic Activation: RAT, LIVER, S-9, AROCLOR 1254, Method: STANDARD PLATE
[9] = Test System: AMES SALMONELLA TYPHIMURIUM, Strain/Indicator: TA1538, Metabolic Activation: NONE, Method: STANDARD PLATE
[10] = Test System: AMES SALMONELLA TYPHIMURIUM, Strain/Indicator: TA1538, Metabolic Activation: RAT, LIVER, S-9, AROCLOR 1254, Method: STANDARD PLATE

SMILES: CC/C(C)=N\O
- mutagenic call (Test System: AMES SALMONELLA TYPHIMURIUM, Strain/Indicator: TA97, Metabolic Activation: HAMSTER LIVER S-9, AROCLOR 1254, 30%, Method: PREINCUBATION): inactive; negative
- mutagenic call (Test System: AMES SALMONELLA TYPHIMURIUM, Strain/Indicator: TA97, Metabolic Activation: NONE, Method: PREINCUBATION): inactive; negative
- mutagenic call (Test System: AMES SALMONELLA TYPHIMURIUM, Strain/Indicator: TA97, Metabolic Activation: RAT LIVER S-9, AROCLOR 1254, 30%, Method: PREINCUBATION): inactive; negative
- mutagenic call (Test System: AMES SALMONELLA TYPHIMURIUM, Strain/Indicator: TA98, Metabolic Activation: HAMSTER LIVER S-9, AROCLOR 1254, 30%, Method: DESICCATOR): inactive; negative
- mutagenic call (Test System: AMES SALMONELLA TYPHIMURIUM, Strain/Indicator: TA98, Metabolic Activation: HAMSTER LIVER S-9, AROCLOR 1254, 30%, Method: PREINCUBATION): inactive; negative
- mutagenic call (Test System: AMES SALMONELLA TYPHIMURIUM, Strain/Indicator: TA98, Metabolic Activation: HAMSTER, LIVER, S-9, AROCLOR 1254, Method: STANDARD PLATE): inactive; negative
- mutagenic call (Test System: AMES SALMONELLA TYPHIMURIUM, Strain/Indicator: TA98, Metabolic Activation: NONE, Method: DESICCATOR): inactive; negative
- mutagenic call (Test System: AMES SALMONELLA TYPHIMURIUM, Strain/Indicator: TA98, Metabolic Activation: NONE, Method: PREINCUBATION): inactive; negative
- mutagenic call [1]: inactive; negative
- mutagenic call (Test System: AMES SALMONELLA TYPHIMURIUM, Strain/Indicator: TA98, Metabolic Activation: RAT LIVER S-9, AROCLOR 1254, 30%, Method: DESICCATOR): inactive; negative
- mutagenic call (Test System: AMES SALMONELLA TYPHIMURIUM, Strain/Indicator: TA98, Metabolic Activation: RAT LIVER S-9, AROCLOR 1254, 30%, Method: PREINCUBATION): inactive; negative
- mutagenic call [2]: inactive; negative
- mutagenic call (Test System: AMES SALMONELLA TYPHIMURIUM, Strain/Indicator: TA100, Metabolic Activation: HAMSTER LIVER S-9, AROCLOR 1254, 30%, Method: DESICCATOR): inactive; negative
- mutagenic call (Test System: AMES SALMONELLA TYPHIMURIUM, Strain/Indicator: TA100, Metabolic Activation: HAMSTER LIVER S-9, AROCLOR 1254, 30%, Method: PREINCUBATION): inactive; negative
- mutagenic call (Test System: AMES SALMONELLA TYPHIMURIUM, Strain/Indicator: TA100, Metabolic Activation: HAMSTER, LIVER, S-9, AROCLOR 1254, Method: STANDARD PLATE): inactive; negative
- mutagenic call (Test System: AMES SALMONELLA TYPHIMURIUM, Strain/Indicator: TA100, Metabolic Activation: NONE, Method: DESICCATOR): inactive; negative
- mutagenic call (Test System: AMES SALMONELLA TYPHIMURIUM, Strain/Indicator: TA100, Metabolic Activation: NONE, Method: PREINCUBATION): inactive; negative
- mutagenic call [3]: inactive; negative
- mutagenic call (Test System: AMES SALMONELLA TYPHIMURIUM, Strain/Indicator: TA100, Metabolic Activation: RAT LIVER S-9, AROCLOR 1254, 30%, Method: DESICCATOR): inactive; negative
- mutagenic call (Test System: AMES SALMONELLA TYPHIMURIUM, Strain/Indicator: TA100, Metabolic Activation: RAT LIVER S-9, AROCLOR 1254, 30%, Method: PREINCUBATION): inactive; negative
- mutagenic call [4]: inactive; negative
- mutagenic call (Test System: AMES SALMONELLA TYPHIMURIUM, Strain/Indicator: TA1535, Metabolic Activation: HAMSTER LIVER S-9, AROCLOR 1254, 30%, Method: PREINCUBATION): active; positive
- mutagenic call (Test System: AMES SALMONELLA TYPHIMURIUM, Strain/Indicator: TA1535, Metabolic Activation: HAMSTER, LIVER, S-9, AROCLOR 1254, Method: STANDARD PLATE): inactive; negative
- mutagenic call (Test System: AMES SALMONELLA TYPHIMURIUM, Strain/Indicator: TA1535, Metabolic Activation: NONE, Method: PREINCUBATION): inactive; negative
- mutagenic call [5]: inactive; negative
- mutagenic call (Test System: AMES SALMONELLA TYPHIMURIUM, Strain/Indicator: TA1535, Metabolic Activation: RAT LIVER S-9, AROCLOR 1254, 30%, Method: PREINCUBATION): inactive; negative
- mutagenic call [6]: inactive; negative
- mutagenic call (Test System: AMES SALMONELLA TYPHIMURIUM, Strain/Indicator: TA1537, Metabolic Activation: HAMSTER, LIVER, S-9, AROCLOR 1254, Method: STANDARD PLATE): inactive; negative
- mutagenic call [7]: inactive; negative
- mutagenic call [8]: inactive; negative
- mutagenic call (Test System: AMES SALMONELLA TYPHIMURIUM, Strain/Indicator: TA1538, Metabolic Activation: HAMSTER, LIVER, S-9, AROCLOR 1254, Method: STANDARD PLATE): inactive; negative
- mutagenic call [9]: inactive; negative
- mutagenic call [10]: inactive; negative
- mutagenic call (Test System: MOUSE LYMPHOMA, Strain/Indicator: L5178Y (TK+/TK-), Metabolic Activation: NONE, Method: SUSPENSION/PLATE): active; positive. reevaluation of results: positive
- mutagenic call (Test System: MOUSE LYMPHOMA, Strain/Indicator: L5178Y (TK+/TK-), Metabolic Activation: RAT, LIVER, S-9, AROCLOR 1254, Method: SUSPENSION/PLATE): inactive; negative. reevaluation of results: negative

SMILES: O=C(O)c1nn(Cc2ccc(Cl)cc2Cl)c2ccccc12
- mutagenic call [1]: inactive; negative
- mutagenic call [2]: inactive; negative
- mutagenic call [3]: inactive; negative
- mutagenic call [4]: inactive; negative
- mutagenic call [5]: inactive; negative
- mutagenic call [6]: inactive; negative
- mutagenic call [7]: inactive; negative
- mutagenic call [8]: inactive; negative
- mutagenic call [9]: inactive; negative
- mutagenic call [10]: inactive; negative
- mutagenic call (Test System: CHINESE HAMSTER OVARY, Strain/Indicator: CHO-K1-BH4 (HPRT), Metabolic Activation: NONE): inactive; negative
- mutagenic call (Test System: CHINESE HAMSTER OVARY, Strain/Indicator: CHO-K1-BH4 (HPRT), Metabolic Activation: RAT, LIVER, S-9, AROCLOR 1254): inactive; negative

SMILES: NCCCCCCCCCCC(=O)O
- mutagenic call (End Point: IN VITRO CHROMOSOMAL ABERRATIONS, Test System: CHINESE HAMSTER OVARY CELLS, Metabolic Activation: NONE): inactive; negative; precipitation occurred at 1000 ug/ml
- mutagenic call (End Point: IN VITRO CHROMOSOMAL ABERRATIONS, Test System: CHINESE HAMSTER OVARY CELLS, Metabolic Activation: RAT, LIVER, S-9, AROCLOR 1254): inactive; negative; precipitation occurred at 1000 ug/ml
- mutagenic call (Test System: UDS RAT HEPATOCYTES, Strain/Indicator: BROMODEOXYURIDINE INCORP, Metabolic Activation: NONE, Method: FLOW CYTOMETRIC ANALYSIS): inactive; negative

SMILES: CCCCCn1cc2c3c(cccc31)[C@H]1C=C(C)CN(C)[C@@H]1C2
- mutagenic call [4]: active; positive

— PubChem BioAssay AID1259407 (Chemical Carcinogenesis Research Information System (CCRIS), 2018)
